Data taken from US5521170A, “Benzamide derivatives and pharmaceutical composition comprising the same” (Fujisawa Pharmaceutical Co., Ltd., priority 1993, dated 1996).

target: T1, Vasopressin 1 (Vl) receptor (Rattus norvegicus, UniProt P30560); experiment: Vasopressin 1 (Vl) receptor binding; details: rat liver membrane; 0.5 nM ^3H-vasopressin; 60 minutes at 25° C.; pH 7.4
T1 construct: The rat liver was dissected and homogenized; from tissue; host or cells: rat liver membranes
Method: Vasopressin 1 (Vl) receptor binding
The rat liver was dissected and homogenized in 10 volume of ice cold 250 mM sucrose buffer containing 25 mM Tris-HCl (pH 7.4), 5 mM MgCl2 and 0.1 mM phenylmethylsulfonyl fluoride (PMSF). The homogenate was centrifuged at 1000 xg for 10 minutes. The supernatant fraction was separated and centrifuged at 45,000 xg for 30 minutes. The remaining pellet was resuspended in 10 volume of ice cold 100 mM Tris-HCl (pH 7.4) buffer (containing 5 mM MgCl2, 0.1% bovine serum albumin and 0.1 mM PMSF), and centrifuged at 45,000 xg for 30 minutes again. The final pellet was resuspended in 100 mM Tris-HCl buffer. The resulting membrane preparation was used immediately for the binding assay.
Competition assays were conducted at equilibrium (60 minutes at 25° C.) by using 0.5 nM ^3 H-vasopressin ([phenylalanyl-3,4,5-^3 H]-vasopression; 40-87 Ci/mmol; New England Nuclear) in 100 mM Tris-HCl (pH 7.4) buffer. Nonspecific binding was determined by using 1 μM [d(CH2)5, Tyr^2 (Me), Arg^8 ]-vasopressin (Peptide institute, Japan). After incubation, reaction was terminated by adding 5 ml of ice-cold 100 mM Tris-HCl (pH 7.4) buffer, and then filtered rapidly through Whatman glass filter (GF/C). […] The glass filter was mixed with liquid scintilation cocktail, and radioactivity was counted in a liquid scintilation counter (TRI-CARB 4530, Packard). […]

T1 sequence (P30560 whole entry): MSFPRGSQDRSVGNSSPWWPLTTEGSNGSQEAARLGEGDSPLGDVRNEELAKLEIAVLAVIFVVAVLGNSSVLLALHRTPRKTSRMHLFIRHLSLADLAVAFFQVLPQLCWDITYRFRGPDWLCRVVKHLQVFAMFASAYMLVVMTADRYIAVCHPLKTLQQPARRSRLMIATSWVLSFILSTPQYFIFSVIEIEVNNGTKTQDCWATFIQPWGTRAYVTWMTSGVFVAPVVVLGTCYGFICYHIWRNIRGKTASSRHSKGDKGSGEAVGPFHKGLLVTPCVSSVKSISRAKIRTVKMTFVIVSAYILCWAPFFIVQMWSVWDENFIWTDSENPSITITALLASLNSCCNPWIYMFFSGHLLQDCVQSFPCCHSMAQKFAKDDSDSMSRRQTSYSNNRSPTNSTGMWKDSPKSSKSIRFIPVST

Compound | IC50 [nM]
Cc1ccc(-c2ccccc2C(=O)Nc2ccc(C(=O)N3CCCCc4ccccc43)cc2)cc1 [2-2), 1-{4-[2-(4-Methylphenyl)benzoylamino]benzoyl}-2,3,4,5-tetrahydro-1H-benzazepine] | 3.9
Cc1ccccc1-c1ccccc1C(=O)Nc1ccc(C(=O)N2CCCC(N(C)C)c3ccccc32)cc1 (centres unmarked) [2-21), 5-Dimethylamino-1-{4-[2-(2-methylphenyl)benzoylamino]benzoyl}-2,3,4,5-tetrahydro-1H-benzazepine] | 4.4

target: T2, Vasopressin 2 (V2) receptor (Rattus norvegicus, UniProt Q00788); experiment: Vasopressin 2 (V2) receptor binding; details: male rat kidney medullopapillary membrane; 0.5 nM ^3H-vasopressin; 2 hours at 25° C.; pH 7.4
T2 construct: The medullopapillary region of male rat kidey was dissected; from tissue; host or cells: male rat kidney medullopapillary membranes
T2 sequence (Q00788 whole entry): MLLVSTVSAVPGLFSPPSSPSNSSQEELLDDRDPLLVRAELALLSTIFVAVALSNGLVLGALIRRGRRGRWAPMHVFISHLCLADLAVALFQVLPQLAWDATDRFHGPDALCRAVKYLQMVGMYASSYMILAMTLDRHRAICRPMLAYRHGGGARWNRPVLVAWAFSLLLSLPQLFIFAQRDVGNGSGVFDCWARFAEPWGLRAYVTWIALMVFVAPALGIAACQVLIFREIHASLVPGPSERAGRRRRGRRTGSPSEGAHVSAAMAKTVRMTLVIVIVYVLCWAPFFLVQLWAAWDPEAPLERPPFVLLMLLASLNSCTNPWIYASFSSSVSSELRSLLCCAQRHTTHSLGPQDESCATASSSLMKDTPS
Method: Vasopressin 2 (V2) receptor binding
The medullopapillary region of male rat kidey was dissected and homogenized in 10 volume of ice cold 250 mM sucrose buffer containing 25 mM Tris-HCl (pH 7.4), 5 mM MgCl2 and 0.1 mM phenylmethylsulfonyl fluoride (PMSF). The homogenate was centrifuged at 500 xg for 5 minutes. The supernatant fraction was separated and centrifuged at 45,000 xg for 30 minutes. The remaining pellet was resuspended in 10 volume of ice cold 100 mM Tris-HCl (pH 7.4) buffer (containing 5 mM MgCl2, 0.1% bovine serum albumin and 0.1 mM PMSF), and centrifuged at 45,000 xg for 30 minutes again. The final pellet was resuspended in 100 mM Tris-HCl buffer. The resulting membrane preparation was used immediately for the binding assay.
Competition assays were conducted at equilibrium (2 hours at. 25° C.) by using 0.5 nM ^3 H-vasopression ([phenylalanyl-3,4,5-3H]-vasopression; 40-87 Ci/mmol; New England Nuclear) in 100 mM Tris-HCl (pH 7.4) buffer. Nonspecific binding was determined by using 1 μM [d(CH2)5, D-Ile^2 Ile^4 Arg8]-vasopressin (Peninsula Laboratories USA). After incubation, reaction was terminated by adding 5 ml of ice-cold 100 mM Tris-HCl (pH 7.4) buffer, and then filtered rapidly through Whatman glass filter (GF/C). The filter was washed 2 times with the same buffer (5 ml). The glass filter was mixed with liquid scintilation cocktail, and radioactivity was counted in a liquid scintilation counter (TRI-CARB 4530, Packard). Competition activity of the test compound was represented by IC50 values.

Compound | IC50 [nM]
Cc1ccc(-c2ccccc2C(=O)Nc2ccc(C(=O)N3CC(=O)Nc4ccccc43)cc2)cc1 [2-4), 1-{4-[2-(4-Methylphenyl)benzoylamino]benzoyl}-1,2,3,4-tetrahydroquinoxalin-3-one] | 3
Cc1ccc(-c2ccccc2C(=O)Nc2ccc(C(=O)N3CCC(=O)N(CC(=O)N4CCN(C)CC4)c4ccccc43)cc2)c(C)c1 [16-3), 5-{4-[2-(2,4-Dimethylphenyl)benzoylamino]benzoyl}-1-[(4-methyl-1-piperazinyl)carbonylmethyl]-1,3,4,5-tetrahydro-1,5-benzodiazepin-2 (2H)-one] | 2.3
Cc1ccc(-c2ccccc2C(=O)Nc2ccc(C(=O)N3CCC(=O)N(CC(=O)N4CCN(C)CC4)c4cc(Cl)ccc43)cc2)cc1 [16-9), 8-Chloro-5-{4-[2-(4-methylphenyl)benzoylamino]benzoyl}-1-[(4-methyl-1-piperazinyl)carbonylmethyl]-1,3,4,5-tetrahydro-1,5-benzodiazepin-2(2H)-one] | 3.3
Cc1ccc(-c2ccccc2C(=O)Nc2ccc(C(=O)N3CCC(=O)N(CC(=O)N4CCN(C)CC4)c4cc(C)ccc43)cc2)cc1 [16-14), 8-Methyl-5-{4-[2-(4-methylphenyl)benzoylamino]benzoyl}-1-[(4-methyl-1-piperazinyl)carbonylmethyl]1,3,4,5-tetrahydro-1,5-benzodiazepin-2(2H)-one] | 2.7
Cc1ccc(-c2ccccc2C(=O)Nc2ccc(C(=O)N3CCCC(CC(=O)N4CCN(C)CC4)c4ccccc43)cc2)cc1 (centres unmarked) [16-69), 1-{4-[2-(4-Methylphenyl)benzoylamino]benzoyl}-5-(4-methyl-1-piperazinylcarbonyl)methyl-2,3,4,5-tetrahydro-1H-1-benzazepine] | 5.1
Cc1ccc(-c2ccccc2C(=O)Nc2ccc(C(=O)N3CCC(=O)N(CC(=O)N4CCN(C)CC4)c4ccccc43)cc2)cc1 [Example 15, 5-{4-[2-(4-methylphenyl)benzoylamino]benzoyl}-1-[(4-methyl-1-piperazinyl)carbonylmethyl]-1,3,4,5-tetrahydro-1,5-benzodiazepin-2(2H)-one] | 1.8
